Results reported in patent publication US12473278B2 (Industry—University Cooperation Foundation Hangyang …, priority 2019, dated 2025).
pIC50: −log10 of the molar value. Read-outs that look alike come from different tables or passages of the source.

How the values were obtained:
FLT3 [1] = target: T1, FLT3 (Homo sapiens (Human), UniProt P36888); experiment: Measurement of FLT3 enzyme activity; assay type: biochemical
Text: Measurement of FLT3 Enzyme Activity
A change in FLT3 enzyme activity by treatment with the benzimidazole derivatives of the following Table 1 according to the present invention was confirmed by IC50.

FLT3 (ITD) = experiment: Kinase panel screening; conditions: single dose of 10 μM
Text: (§1) Measurement of Inhibitory Activity Against Various Protein Kinases

RAFI = RAFI (Homo sapiens (Human), UniProt P04049); experiment: Kinase panel screening; conditions: read-out: % inhibition rate
RAFI, sequence (P04049 whole entry): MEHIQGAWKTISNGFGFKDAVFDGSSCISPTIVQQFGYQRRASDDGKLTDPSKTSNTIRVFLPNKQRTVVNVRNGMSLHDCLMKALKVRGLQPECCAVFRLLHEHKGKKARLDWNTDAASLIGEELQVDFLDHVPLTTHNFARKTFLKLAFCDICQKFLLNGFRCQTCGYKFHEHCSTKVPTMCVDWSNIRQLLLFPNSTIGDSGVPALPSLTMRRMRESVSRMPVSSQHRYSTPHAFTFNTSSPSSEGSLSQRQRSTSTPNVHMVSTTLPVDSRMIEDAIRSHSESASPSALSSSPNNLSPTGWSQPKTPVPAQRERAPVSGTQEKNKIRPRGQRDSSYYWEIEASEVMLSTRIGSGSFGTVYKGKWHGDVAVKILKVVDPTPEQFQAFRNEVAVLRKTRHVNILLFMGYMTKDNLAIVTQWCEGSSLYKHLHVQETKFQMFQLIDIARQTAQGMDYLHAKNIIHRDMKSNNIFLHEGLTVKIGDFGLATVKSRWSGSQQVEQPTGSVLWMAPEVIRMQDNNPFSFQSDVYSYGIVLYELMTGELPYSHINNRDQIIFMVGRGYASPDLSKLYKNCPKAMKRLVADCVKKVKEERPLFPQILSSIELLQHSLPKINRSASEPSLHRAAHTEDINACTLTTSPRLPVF
Text: as §1

FMS = FMS (Homo sapiens (Human), UniProt P07333); experiment: Kinase panel screening; assay type: biochemical
FMS, sequence (P07333 20-972, species assumed): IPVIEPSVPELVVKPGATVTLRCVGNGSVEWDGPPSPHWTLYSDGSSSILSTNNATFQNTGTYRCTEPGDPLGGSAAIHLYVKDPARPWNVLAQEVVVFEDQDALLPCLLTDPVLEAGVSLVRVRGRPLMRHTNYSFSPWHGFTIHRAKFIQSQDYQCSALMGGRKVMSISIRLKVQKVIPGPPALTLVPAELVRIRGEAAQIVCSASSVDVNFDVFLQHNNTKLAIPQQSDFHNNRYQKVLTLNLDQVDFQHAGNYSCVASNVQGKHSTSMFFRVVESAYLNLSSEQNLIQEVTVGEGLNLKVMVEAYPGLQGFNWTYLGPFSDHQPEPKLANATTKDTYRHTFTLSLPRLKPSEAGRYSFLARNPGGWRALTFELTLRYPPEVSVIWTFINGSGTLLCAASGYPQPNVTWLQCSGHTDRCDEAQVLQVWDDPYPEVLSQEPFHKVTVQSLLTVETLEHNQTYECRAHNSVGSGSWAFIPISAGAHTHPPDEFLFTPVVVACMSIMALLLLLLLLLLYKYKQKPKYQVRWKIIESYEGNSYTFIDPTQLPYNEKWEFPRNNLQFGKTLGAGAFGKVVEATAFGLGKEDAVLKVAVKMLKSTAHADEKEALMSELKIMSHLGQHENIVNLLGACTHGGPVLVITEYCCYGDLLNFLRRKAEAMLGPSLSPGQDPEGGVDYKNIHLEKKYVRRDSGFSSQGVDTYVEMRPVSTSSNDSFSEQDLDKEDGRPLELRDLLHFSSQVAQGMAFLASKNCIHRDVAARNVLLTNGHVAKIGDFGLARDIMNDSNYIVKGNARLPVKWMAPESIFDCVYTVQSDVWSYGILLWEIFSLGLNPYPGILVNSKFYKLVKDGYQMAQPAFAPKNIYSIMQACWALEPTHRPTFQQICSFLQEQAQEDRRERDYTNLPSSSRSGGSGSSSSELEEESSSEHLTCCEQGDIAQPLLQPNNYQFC

FLT3 [2] = target: T1, FLT3; experiment: Kinase panel screening; conditions: FLT3; single dose of 10 μM
Text: as §1

FGFR3 = FGFR3 (Homo sapiens (Human), UniProt P22607); experiment: Kinase panel screening; conditions: read-out: Staurosporine IC50; FGFR3; control compound per footnote b
FGFR3, sequence (P22607 23-806, species assumed): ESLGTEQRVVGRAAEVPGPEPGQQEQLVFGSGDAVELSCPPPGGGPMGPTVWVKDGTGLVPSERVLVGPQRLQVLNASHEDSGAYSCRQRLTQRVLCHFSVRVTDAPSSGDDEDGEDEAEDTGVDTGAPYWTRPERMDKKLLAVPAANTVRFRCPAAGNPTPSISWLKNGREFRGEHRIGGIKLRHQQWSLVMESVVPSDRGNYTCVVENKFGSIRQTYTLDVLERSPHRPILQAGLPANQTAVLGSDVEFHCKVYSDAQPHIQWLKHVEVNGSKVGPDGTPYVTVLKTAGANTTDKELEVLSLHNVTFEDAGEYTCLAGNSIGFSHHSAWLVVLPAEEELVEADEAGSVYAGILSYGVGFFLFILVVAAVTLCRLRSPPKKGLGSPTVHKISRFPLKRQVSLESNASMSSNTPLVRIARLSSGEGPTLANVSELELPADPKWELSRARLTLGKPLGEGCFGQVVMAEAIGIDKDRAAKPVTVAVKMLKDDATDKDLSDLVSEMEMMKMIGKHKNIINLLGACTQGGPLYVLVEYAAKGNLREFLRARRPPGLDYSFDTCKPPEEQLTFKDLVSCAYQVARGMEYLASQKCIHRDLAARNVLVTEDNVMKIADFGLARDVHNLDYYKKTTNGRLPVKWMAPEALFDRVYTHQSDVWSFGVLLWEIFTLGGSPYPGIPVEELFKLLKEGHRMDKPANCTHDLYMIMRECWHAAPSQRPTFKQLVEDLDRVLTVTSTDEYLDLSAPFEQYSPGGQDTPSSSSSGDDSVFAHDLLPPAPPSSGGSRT
Text: as §1

[3] = FLT3 enzyme activity, read-out: FLT3 (IC50)
[4] = FLT3 kinase activity, read-out: IC50 against FLT3

T1 sequence (P36888 27-993): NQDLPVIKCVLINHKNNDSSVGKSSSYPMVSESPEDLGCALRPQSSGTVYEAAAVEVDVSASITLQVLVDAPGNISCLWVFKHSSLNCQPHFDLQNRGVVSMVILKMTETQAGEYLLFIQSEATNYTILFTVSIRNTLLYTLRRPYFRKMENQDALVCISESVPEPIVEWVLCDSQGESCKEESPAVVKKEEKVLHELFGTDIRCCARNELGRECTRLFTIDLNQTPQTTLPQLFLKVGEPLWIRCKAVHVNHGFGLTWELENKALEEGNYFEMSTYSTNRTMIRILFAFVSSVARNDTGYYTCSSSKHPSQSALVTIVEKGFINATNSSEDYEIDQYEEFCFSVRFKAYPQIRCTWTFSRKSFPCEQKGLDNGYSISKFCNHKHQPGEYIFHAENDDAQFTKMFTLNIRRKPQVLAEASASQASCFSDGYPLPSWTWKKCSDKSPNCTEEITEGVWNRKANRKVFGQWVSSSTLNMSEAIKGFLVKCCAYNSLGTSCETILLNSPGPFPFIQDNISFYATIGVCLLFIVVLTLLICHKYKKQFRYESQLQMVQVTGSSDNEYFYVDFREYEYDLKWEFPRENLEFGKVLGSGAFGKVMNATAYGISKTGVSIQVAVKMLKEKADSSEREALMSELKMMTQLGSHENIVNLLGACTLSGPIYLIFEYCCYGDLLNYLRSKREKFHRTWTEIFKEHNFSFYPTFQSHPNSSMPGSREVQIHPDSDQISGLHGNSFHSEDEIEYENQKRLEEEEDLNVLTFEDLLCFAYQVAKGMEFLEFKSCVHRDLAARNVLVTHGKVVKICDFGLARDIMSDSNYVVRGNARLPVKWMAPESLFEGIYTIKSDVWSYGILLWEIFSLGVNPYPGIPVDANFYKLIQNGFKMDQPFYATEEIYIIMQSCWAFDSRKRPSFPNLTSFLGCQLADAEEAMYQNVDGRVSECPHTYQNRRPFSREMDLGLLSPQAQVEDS

pIC50 (FLT3 [1]; [3]) | SMILES | other results
> 5.52 | Cc1oncc1C(=O)Nc1ccc2[nH]c(-c3cc(-n4cncc4C)cc(C(F)(F)F)c3)nc2c1 [Compound 5e, 5-methyl-N-(2-(3-(5-methyl-1H-imidazol-1-yl)-5-(trifluoromethyl)phenyl)-1H-benz[d]imidazol-5-yl)isoxazole-4-carboxamide] | –
5.00 to 5.52 | Cc1oncc1C(=O)Nc1ccc2[nH]c(-c3ccc(N4CCOCC4)c(C(F)(F)F)c3)nc2c1 [Compound 5c, 5-methyl-N-(2-(4-morpholino-3-(trifluoromethyl)phenyl)-1H-benz[d]imidazol-5-yl)isoxazole-4-carboxamide] | pIC50 (FLT3 [1]; [4]): 5.00
< 5.00 | CC(=O)N1CCC(c2nc3cc(NC(=O)c4cnoc4C)ccc3[nH]2)CC1 [Compound 5o, N-(2-(1-acetylpiperidin-4-yl)-1H-benz[d]imidazol-5-yl)-5-methylisoxazole-4-carboxamide] | –
5.00 to 5.52 | Cc1oncc1C(=O)Nc1ccc2[nH]c(-c3cc(OC4CCN(C)CC4)cc(C(F)(F)F)c3)nc2c1 [Compound 5i, 5-methyl-N-(2-(3-((1-methylpiperidin-4-yl)oxy)-5-(trifluoromethyl)phenyl)-1H-benz[d]imidazol-5-yl)isoxazole-4-carboxamide] | –
< 5.00 | Cc1oncc1C(=O)Nc1ccc2[nH]c(-c3cc(F)cc(C(F)(F)F)c3)nc2c1 [Compound 5h, N-(2-(3-fluoro-5-(trifluoromethyl)phenyl)-1H-benz[d]imidazol-5-yl)-5-methylisoxazole-4-carboxamide] | –
5.00 to 5.52 | CCN1CCN(Cc2cc(-c3nc4cc(NC(=O)c5cnoc5C)ccc4[nH]3)cc(C(F)(F)F)c2)CC1 [Compound 5m, N-(2-(3-((4-ethylpiperazin-1-yl)methyl)-5-(trifluoromethyl)phenyl)-1H-benz[d]imidazol-5-yl)-5-methylisoxazole-4-carboxamide] | –
< 5.00 | Cc1oncc1C(=O)Nc1ccc2[nH]c(C3CCCC3)nc2c1 [Compound 5p, N-(2-cyclopentyl-1H-benz[d]imidazol-5-yl)-5-methylisoxazole-4-carboxamide] | –

Continued, molecule first:

SMILES | pIC50 (FLT3 [1]; [3]) | other results
Cc1oncc1C(=O)Nc1ccc2[nH]c(-c3ccc(N4CCN(C)CC4)c(C(F)(F)F)c3)nc2c1 [Compound 5j, 5-methyl-N-(2-(4-(4-methylpiperazin-1-yl)-3-(trifluoromethyl)phenyl)-1H-benz[d]imidazol-5-yl)isoxazole-4-carboxamide] | < 5.00 | –
Cc1oncc1C(=O)Nc1ccc2[nH]c(-c3cc(N4CCN(C)CC4)cc(C(F)(F)F)c3)nc2c1 [Compound 5a, 5-methyl-N-(2-(3-(4-methylpiperazin-1-yl)-5-(trifluoromethyl)phenyl)-1H-benz[d]imidazol-5-yl)isoxazole-4-carboxamide] | > 5.52 | % inhibition rate (FLT3 (ITD)): 88.48%; pIC50 (FLT3 [1]; [4]): 6.31; inhibition at 10 µM (RAFI): 8.47%; inhibition at 10 µM (FMS; read-out: % inhibition rate): 0%; activity against other protein kinases, particularly FMS (in words) (FMS; single dose of 10 μM): did not exhibit significant activity; % inhibition rate (FLT3 [2]): 89.97%
Cc1oncc1C(=O)Nc1cccc2[nH]c(-c3cc(N4CCN(C)CC4)cc(C(F)(F)F)c3)nc12 [Compound 6a] | > 5.52 | –
Cc1cn(-c2cc(-c3nc4c(NC(=O)c5cnoc5C)cccc4[nH]3)cc(C(F)(F)F)c2)cn1 [Compound 6c, 5-methyl-N-(2-(3-(4-methyl-1H-imidazol-1-yl)-5-(trifluoromethyl)phenyl)-1H-benz[d]imidazol-4-yl)isoxazole-4-carboxamide] | 5.00 to 5.52 | –
Cc1oncc1C(=O)Nc1cccc2[nH]c(-c3ccc(N4CCOCC4)c(C(F)(F)F)c3)nc12 [Compound 6b, 5-methyl-N-(2-(4-morpholino-3-(trifluoromethyl)phenyl)-1H-benz[d]imidazol-4-yl)isoxazole-4-carboxamide] | < 5.00 | –
Cc1cn(-c2cc(-c3nc4cc(NC(=O)c5cnoc5C)ccc4[nH]3)cc(C(F)(F)F)c2)cn1 [Compound 5d, 5-methyl-N-(2-(3-(4-methyl-1H-imidazol-1-yl)-5-(trifluoromethyl)phenyl)-1H-benz[d]imidazol-5-yl)isoxazole-4-carboxamide] | > 5.52 | –
Cc1oncc1C(=O)Nc1ccc2[nH]c(-c3cc(-n4ccnc4C)cc(C(F)(F)F)c3)nc2c1 [Compound 5f, 5-methyl-N-(2-(3-(2-methyl-1H-imidazol-1-yl)-5-(trifluoromethyl)phenyl)-1H-benz[d]imidazol-5-yl)isoxazol-4-carboxamide] | < 5.00 | –
Cc1oncc1C(=O)Nc1ccc2[nH]c(-c3ccc(Cl)cc3)nc2c1 [Compound 5l, N-(2-(4-chlorophenyl)-1H-benz[d]imidazol-5-yl)-5-methylisoxazole-4-carboxamide] | 5.00 to 5.52 | –
CCN1CCN(Cc2ccc(-c3nc4cc(NC(=O)c5cnoc5C)ccc4[nH]3)cc2C(F)(F)F)CC1 [Compound 5n, N-(2-(4-((4-ethylpiperazin-1-yl)methyl)-3-(trifluoromethyl)phenyl)-1H-benz[d]imidazol-5-yl)-5-methylisoxazole-4-carboxamide] | 5.00 to 5.52 | –
O=C(Nc1ccc2[nH]nc(-c3ccncc3)c2c1)[C@@H]1CCN(CC(=O)N2CCN(c3ccc(-c4ncccn4)cc3)CC2)C1 [SCH772984, reference compound] | – | pIC50 (FGFR3): 7.83
Cc1oncc1C(=O)Nc1ccc2[nH]c(-c3ccc(Cl)c(C(F)(F)F)c3)nc2c1 [Compound 5k, N-(2-(4-chloro-3-(trifluoromethyl)phenyl)-1H-benz[d]imidazol-5-yl)-5-methylisoxazole-4-carboxamide] | 5.00 to 5.52 | –
